Measurements from paper PMC9629493, “Crystal structure of DNA polymerase I from Thermus phage G20c” (Acta Crystallographica. Section D, Structural Biology, 2022).

Legend:
ExnV1 [1] = target: T1, ExnV1 (uncultured virus, UniProt Z9YD31SC24); test: X-ray crystal structure, […] A; format: binding; conditions: TMP and MgCl2 added before concentration; 5 mM TMP, 10 mM MgCl2 in cryo-solution; 100 mM Bicine pH 9.3; exonuclease active site
T1 construct: full 314-residue 3'-5' exonuclease domain protein, N-terminal His6 tag (pJOE5751.1, pLEI447.1), E. coli JM109, about 36 kDa, no oligomerization

ExnV1 [2] = target: T1, ExnV1; test: differential scanning fluorimetry; format: binding; conditions: with MgCl2

Cc1cn([C@H]2C[C@H](O)[C@@H](COP(=O)(O)O)O2)c(=O)[nH]c1=O [thymidine monophosphate]
X-ray crystal structure, 2.19 A (ExnV1 [1]): the second O atom of the phosphate group of the substrate nucleotide
thermal stabilization (ExnV1 [2]): Differential scanning fluorimetry showed that ExnV1 was stabilized by thymidine monophosphate (TMP) and MgCl2
